Laboratory results reported in article PMC12040275, “Fusaric acid-mediated S-glutathionylation of MaAKT1 channel confers the virulence of Foc TR4 to banana” (PLOS Pathogens, 2025).

Legend:
[1] = molecular target: T1, MaAKT1 (Musa acuminata, UniProt A0A804HWY8); assay: whole-cell patch clamp, HEK-293; assay type: cell-based; settings: HEK293
T1 construct: synthesized cDNA in pcDNA 6/His A, expressed in HEK-293 cells; patch-clamp

[2] = molecular target: T1, MaAKT1; assay: patch clamp, giant inside-out patches from HEK-293; assay type: biochemical; settings: covalent (cysteine thiol oxidation); applied to cytosolic side; -194 mV

T1 sequence (A0A804HWY8 1-891): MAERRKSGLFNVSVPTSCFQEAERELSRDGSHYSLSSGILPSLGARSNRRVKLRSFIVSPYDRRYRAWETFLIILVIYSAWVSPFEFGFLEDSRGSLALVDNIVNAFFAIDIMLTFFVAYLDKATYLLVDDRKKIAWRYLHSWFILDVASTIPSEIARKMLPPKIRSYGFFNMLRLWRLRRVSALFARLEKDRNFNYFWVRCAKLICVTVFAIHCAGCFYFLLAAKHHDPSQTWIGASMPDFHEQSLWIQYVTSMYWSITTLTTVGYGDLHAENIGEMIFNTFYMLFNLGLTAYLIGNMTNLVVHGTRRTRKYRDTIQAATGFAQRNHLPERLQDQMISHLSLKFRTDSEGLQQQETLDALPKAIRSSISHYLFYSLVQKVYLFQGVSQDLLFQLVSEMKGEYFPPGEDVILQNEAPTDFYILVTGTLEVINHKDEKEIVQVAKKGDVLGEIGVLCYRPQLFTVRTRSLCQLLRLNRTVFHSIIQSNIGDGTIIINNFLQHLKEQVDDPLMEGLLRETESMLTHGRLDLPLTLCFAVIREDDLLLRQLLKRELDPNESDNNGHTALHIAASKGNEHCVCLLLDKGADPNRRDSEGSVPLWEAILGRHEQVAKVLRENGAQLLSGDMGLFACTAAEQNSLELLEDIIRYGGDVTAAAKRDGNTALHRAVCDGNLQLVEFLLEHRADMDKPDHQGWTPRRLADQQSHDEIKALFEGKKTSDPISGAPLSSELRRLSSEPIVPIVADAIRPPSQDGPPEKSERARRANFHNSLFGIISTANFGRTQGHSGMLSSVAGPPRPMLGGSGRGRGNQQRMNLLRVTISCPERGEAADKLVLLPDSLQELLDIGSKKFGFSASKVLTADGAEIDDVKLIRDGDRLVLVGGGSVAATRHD

## c1ccc(SSc2ccccn2)nc1 [2-DTP, 2,2-Dithiodipyridine]
[1]
  inhibition at 50 µM: 61.5 ± 6.66%

## O=C(O)c1cc(SSc2ccc([N+](=O)[O-])c(C(=O)O)c2)ccc1[N+](=O)[O-] [DTNB, 5,5-dithiobis-2-nitrobenzoic acid]
[2]
  patch clamp, giant inside-out patches from HEK-293: low concentration of DTNB significantly inhibited MaAKT1

## O=[N+]([O-])c1ccc(SSc2ccc([N+](=O)[O-])cn2)nc1 [DTNP, 2,2’-dithiobis-5-nitropyridine]
[1]
  inhibition at 50 µM: 60 ± 9.89%
